Laboratory results published in PubChem BioAssay AID2060912 (Molecular Pharmacology Branch, DTP, NCI, 2025).

Tested on: HUVEC/MSC spheroids viability
Assay: Human HUVEC/MSC cell line growth inhibition [KRAS2];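 as to viability, T/C: percent of DMSO vehicle control luminescence so 100% = untreated viability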
Settings: for viability, T/C: stronger effect = lower value
Procedure, shortened: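 Endothelial cells (HUVEC) plus mesenchymal stem cells, cultured at 37 °C/5% CO2 and assembled into spheroids without cancer cells, served as a stromal control. Drug pairs and single agents spanned half-log ranges anchored to clinical Cmax.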

COC(=O)c1ccc2c(C(=Nc3ccc(N(C)C(=O)CN4CCN(C)CC4)cc3)c3ccccc3)c(O)[nH]c2c1 was tested. Which viability, T/C (compound 1 µM) did it give?
The viability, T/C was 58.1% [middle of 5 runs].

What about the viability, T/C (compound 3.16 µM) of the same compound?
The viability, T/C was 39.6% [middle of 5 runs].

What about the viability, T/C (compound 10 µM) of the same compound?
The viability, T/C was 0.37% [middle of 5 runs].

What about the IC50 (curve of compound) of the same compound?
The IC50 was 1.96 µM [middle of 5 runs].

How did the viability, T/C (compound 0.01 µM) turn out when CCN1CCN(Cc2ccc(Nc3ncc(F)c(-c4cc(F)c5nc(C)n(C(C)C)c5c4)n3)nc2)CC1 was run?
The viability, T/C was 86.6% [middle of 5 runs].

And the viability, T/C (compound 0.0316 µM)?
Its viability, T/C is 87.7% [middle of 5 runs].

And the viability, T/C (compound 0.1 µM)?
Its viability, T/C is 83.9% [middle of 5 runs].

What about the viability, T/C (compound 0.316 µM) of the same compound?
Its viability, T/C is 99.4% [middle of 5 runs].

And the IC50 (curve of compound)?
Its IC50 is over 1000 nM.

What does the source list for CC(C)n1nc(-c2ccc3oc(N)nc3c2)c2c(N)ncnc21 + C=CC(=O)N1CCN(c2nc(=O)n(-c3c(C)ccnc3C(C)C)c3nc(-c4c(O)cccc4F)c(F)cc23)C(C)C1?
IC50 (curve of first compound, second compound 0.0316 µM): 3.06 nM; IC50 (curve of first compound, second compound 0.1 µM): 9.63 nM; IC50 (curve of first compound, second compound 0.316 µM): 100 nM; IC50 (curve of first compound, second compound 1 µM): > 100 nM; IC50 (curve of first compound, second compound 3.16 µM): > 100 nM; IC50 (curve of first compound, second compound 10 µM): > 100 nM; viability, T/C (second compound 0.0316 µM, first compound 0.000316 µM): 88.3%; viability, T/C (second compound 0.0316 µM, first compound 0.001 µM): 76.4%; viability, T/C (second compound 0.0316 µM, first compound 0.00316 µM): 48.8%; viability, T/C (second compound 0.0316 µM, first compound 0.01 µM): 49.7%; viability, T/C (second compound 0.0316 µM, first compound 0.0316 µM): 43.2%; viability, T/C (second compound 0.0316 µM, first compound 0.1 µM): 44.1%; viability, T/C (second compound 0.1 µM, first compound 0.000316 µM): 88.7%; viability, T/C (second compound 0.1 µM, first compound 0.001 µM): 59.8%; viability, T/C (second compound 0.1 µM, first compound 0.00316 µM): 63.4%; viability, T/C (second compound 0.1 µM, first compound 0.01 µM): 48.5%; viability, T/C (second compound 0.1 µM, first compound 0.0316 µM): 50.4%; viability, T/C (second compound 0.1 µM, first compound 0.1 µM): 36.2%; viability, T/C (second compound 0.316 µM, first compound 0.000316 µM): 79.4%; viability, T/C (second compound 0.316 µM, first compound 0.001 µM): 86.6%; viability, T/C (second compound 0.316 µM, first compound 0.00316 µM): 53.5%; viability, T/C (second compound 0.316 µM, first compound 0.01 µM): 52.5%; viability, T/C (second compound 0.316 µM, first compound 0.0316 µM): 64.4%; viability, T/C (second compound 0.316 µM, first compound 0.1 µM): 50.6%; viability, T/C (second compound 1 µM, first compound 0.000316 µM): 94%; viability, T/C (second compound 1 µM, first compound 0.001 µM): 73.1%; viability, T/C (second compound 1 µM, first compound 0.00316 µM): 65%; viability, T/C (second compound 1 µM, first compound 0.01 µM): 51.9%; viability, T/C (second compound 1 µM, first compound 0.0316 µM): 65%; viability, T/C (second compound 1 µM, first compound 0.1 µM): 53.5%; viability, T/C (second compound 3.16 µM, first compound 0.000316 µM): 86.2%; viability, T/C (second compound 3.16 µM, first compound 0.001 µM): 74.9%; viability, T/C (second compound 3.16 µM, first compound 0.00316 µM): 66.6%; viability, T/C (second compound 3.16 µM, first compound 0.01 µM): 60.6%; viability, T/C (second compound 3.16 µM, first compound 0.0316 µM): 62.3%; viability, T/C (second compound 3.16 µM, first compound 0.1 µM): 56.4%; viability, T/C (second compound 10 µM, first compound 0.000316 µM): 75%; viability, T/C (second compound 10 µM, first compound 0.001 µM): 67.4%; viability, T/C (second compound 10 µM, first compound 0.00316 µM): 72.9%; viability, T/C (second compound 10 µM, first compound 0.01 µM): 76.3%; viability, T/C (second compound 10 µM, first compound 0.0316 µM): 60.4%; viability, T/C (second compound 10 µM, first compound 0.1 µM): 54.9%
